From patent publication US12678437B2, “Use of Cyclo-HisPro (CHP) for lowering blood pressure” (NOVMETAPHARMA CO., LTD., priority 2020, dated 2026) come the findings set out here.

In assay [1] the test system is ⅚ nephrectomy rats. Put plainly: Prophylactic (pre-treatment) blood pressure control in ⅚ nephrectomy rats. It counts as in vivo. Particulars: ⅚ nephrectomy SD rats; oral 35 mg/kg every other day for 8 weeks from 3 days before nephrectomy; tail artery; SHAM 127.8, disease control (Nx) 196.2. The text has this:
1-1. Construction of ⅚ Nephrectomy Model and Cyclo-HisPro Administration
The kidney is involved in water and sodium metabolism and is closely associated with the renin-angiotensin system, and thus, kidney disease itself, that is, glomerulitis or renal failure, may cause hypertension and play an important role in the development of essential hypertension. Chronic renal failure through nephrectomy in rats leads to continued progression of hypertension, uremia, proteinuria and glomerulosclerosis.
After pre-bringing 7-week-old SD rats purchased from Koatech Co., Ltd. for more than one week, the experimental group underwent surgery in two stages. […]
In order to reduce the error range of blood pressure measurement, the experimental animals were calibrated in the holder of a blood pressure meter (BP-2000 blood pressure analysis system, rat platform 2-channel, Visitech Systems, Apex, NC, USA) and then acclimatized in a heating chamber at 37° C. for 30 minutes, and the systolic blood pressure was measured at least 5 times in the tail artery to obtain the average value. […]

Assay [2] concerns ⅚ nephrectomy rats. The experiment in a line: Therapeutic (post-treatment) blood pressure control in ⅚ nephrectomy rats. It counts as in vivo. Particulars: ⅚ nephrectomy SD rats; oral 35 mg/kg every other day for 6 weeks from 2 weeks after nephrectomy; tail artery; SHAM 127.8, disease control (Nx) 196.2. How it is done:
After pre-bringing 7-week-old SD rats purchased from Koatech Co., Ltd. for more than one week, the experimental group underwent surgery in two stages. After general anesthesia, incision was performed along the midline of the abdomen to separate the left kidney from the adrenal glands and surrounding tissues, and after holding the renal blood vessel with forceps to prevent bleeding, the upper ⅓ and lower ⅓ of the left kidney were removed, and after 1 week, general anesthesia was performed again, and the entire right kidney was removed to complete a ⅚ nephrectomy model.
In order to reduce the error range of blood pressure measurement, the experimental animals were calibrated in the holder of a blood pressure meter (BP-2000 blood pressure analysis system, rat platform 2-channel, Visitech Systems, Apex, NC, USA) and then acclimatized in a heating chamber at 37° C. for 30 minutes, and the systolic blood pressure was measured at least 5 times in the tail artery to obtain the average value. The significance of the experimental results was verified by performing t-test for each group of the disease control group (Nx), the normal control group and the Cyclo-HisPro administration group, and there was a statistically significant difference (**p<0.005, ***p<0.0005, ****p<0.00005).
2-1. Construction of ⅚ Nephrectomy Model and Administration of Cyclo-HisPro […]

The test system of assay [3] is AT1R (angiotensin II type I receptor). Put plainly: AT1R protein expression (Western blot) in angiotensin II-treated HUVEC cells. It counts as cell-based, Human. The settings on record: HUVEC cells treated with Ang II and CHP, versus Ang II-treated control; corrected by β-actin. As to the method:
(§1) Human umbilical vein endothelial cells (HUVEC, CRL-1730) were obtained from the American Type Culture Collection (ATCC), and EBM-2 basal medium and EGM-2 MV microvascular endothelial cell growth medium SingleQuots supplements were purchased from Lonza.
(§2) HUVEC cells were cultured in EBM-2 medium supplemented with EGM-2 MV SingleQuots supplements at 37° C. and 5% CO2 conditions. The medium was replaced every 2 to 3 days, and subculture was performed at 70 to 80% confluency.
(§3) HUVEC cells treated with angiotensin II and CHP were placed in 500 uL of RIPA buffer containing protease and phosphatase inhibitors, and then pulverized by using IKA's T10 homogenizer. […] The supernatant was collected and the protein concentration was measured by BCA quantitation, and the same amount of samples was separated by using the Bolt TM protein gel electrophoresis system, and then transferred to a nitrocellulose membrane. […] After washing 3 times for 10 minutes with TBST, the expression level was measured by reacting with ECL. The size of the appearing band was quantified by using the ImageJ program and corrected by dividing the size value of each band by the size value of the β-actin band. Statistical significance was analyzed by using Student's t-test statistical method with angiotensin II-treated control group (Ang II) (*p<0.05, […], ***p<0.0005).
Background: A western blot detects proteins with antibodies after separation by electrophoresis.

For assay [4], the system named is AT2R (angiotensin II type 2 receptor). The experiment in a line: AT2R protein expression (Western blot) in angiotensin II-treated HUVEC cells. It counts as cell-based, Human. Particulars: HUVEC cells treated with Ang II and CHP, versus Ang II-treated control; corrected by β-actin. How it is done: as §1, §2, §3
For a further assay, the system named is VE-cadherin. Put plainly: VE-cadherin protein expression (Western blot) in angiotensin II-treated HUVEC cells. It counts as cell-based, Human. Particulars: HUVEC cells treated with Ang II and CHP, versus Ang II-treated control; corrected by β-actin. How it is done:
as §1, §2, §3

The next assay concerns eNOS gene. The experiment in a line: eNOS gene expression (real-time PCR) in SVEC4-10 cells. It counts as cell-based, mouse. Particulars: CHP 0, 10, 100 and 250 μM, serum-free medium, 2 hours, corrected by β-actin. As to the method: SVEC4-10 (CRL-2181), which is a mouse endothelial cell line, was obtained from the American Type Culture Collection (ATCC), and RPMI-1640 medium and FBS were purchased from Hyclone.
SVEC4-10 cells were cultured at 37° C. and 5% CO2 conditions by using RPMI-1640 medium containing 10% FBS and 1% penicillin/streptomycin, and subculture was performed every 2 days.
SVEC4-10 cells were placed in a 6-well plate at 5×10^5 cells and cultured for 24 hours. CHP was treated at concentrations of 0, 10, 100 and 250 μM in serum-free medium, respectively, and then it was cultured at 37° C. and 5% CO2 conditions for 2 hours. Thereafter, the medium was removed, and it was washed once with cold PBS and then immediately dissolved using NucleoZOL.
For RNA extraction, RNA was extracted according to the manufacturer's total RNA isolation protocol by using NucleoZOL (MACHEREY-NAGEL), and 1 μg of RNA was subjected to reverse transcription polymerase chain reaction to synthesize cDNA by using iScript cDNA synthesis kit (Bio-Rad). The synthesized cDNA was analyzed by real-time PCR using iQ SYBR Green Supermix (Bio-Rad) by using the primer set of the eNOS gene.
Each gene expression value was corrected by dividing by the expression value of β-actin, which is a housekeeping gene. Statistical significance was analyzed by the Student's t-test statistical method (*p<0.05).

The test system of the next assay is HMVEC-L cells. Put plainly: NO production (DAF-FM DA fluorescence) in HMVEC-L cells. It counts as cell-based, Human. The settings on record: CHP 0, 1, 10, 100 and 500 μM, serum-free medium, 2 hours, versus control not treated with CHP. As to the method:
Human lung microvascular cells (HMVEC-L, CC2527) were obtained from the American Type Culture Collection (ATCC), and EBM-2 basal medium and EGM-2 MV microvascular endothelial cell growth medium SingleQuots supplements were purchased from Lonza.
HUVEC-L cells were cultured in EBM-2 medium supplemented with EGM-2 MV SingleQuots at 37° C. and 5% CO2 conditions. The medium was replaced every 2 to 3 days, and subculture was performed at 70 to 80% confluency.
5×10^4 cells were placed in a black 96-well plate, incubated for 24 hours and treated with CHP at concentrations of 0, 1, 10, 100 and 500 μM in serum-free medium, respectively, and cultured at 37° C. and 5% CO2 conditions for 2 hours. DAF-FM DA (DAF-FM Diacetate; Invitrogen) at a concentration of 5 μM was added and further incubated for 30 minutes, and it was washed once with PBS and observed with a fluorescence microscope at FITC wavelength. Photographs were taken at the same exposure time, and the fluorescence intensity of each cell was measured by using the ImageJ tool. Statistical significance was analyzed by one-way ANOVA statistical method, and comparison with the control group which was not treated with CHP was analyzed by Dunnett's test (****p<0.0001).

With `O=C1N[C@@H](Cc2cnc[nH]2)C(=O)N2CCC[C@@H]12` [Cyclo-HisPro], the systolic blood pressure in the assay with ⅚ nephrectomy rats [1] turned out to be 156.7 mmHg; in the assay on ⅚ nephrectomy rats [2], 171.6 mmHg. For the same compound, in assay [3], the AT1R protein expression result is reported as “statistically significantly decreased”. The AT2R protein expression entry in assay [4] is reported as “tended to increase”. In the assay on VE-cadherin, the VE-cadherin protein expression entry is recorded as “statistically significantly increased”. Also, the “expression of the eNOS gene” value with eNOS gene is “significantly increased”. Moreover, the “NO production (intensity of DAF-FM DA fluorescence)” value with HMVEC-L cells is on record as “significantly increased”.
